Data published in patent publication US20240239861A1, “GLUCAGON-RECEPTOR SELECTIVE POLYPEPTIDES AND METHODS OF USE THEREOF” (i2O Therapeutics, Inc., priority 2016, published 2024).
Where a SMILES comes first, the peptide text is derived from it. [ ]: non-standard residue; d: D form. Aib = CC(C)(N)C(=O)O

What was measured:
human GCGR = human GCGR (Homo sapiens, UniProt P47871); assay: Peptide-receptor mediated cAMP accumulation (LANCE Ultra cAMP) in CHO-K1 cells transfected with human GCGR; format: cell-based
Sequence of human GCGR (P47871 26-477): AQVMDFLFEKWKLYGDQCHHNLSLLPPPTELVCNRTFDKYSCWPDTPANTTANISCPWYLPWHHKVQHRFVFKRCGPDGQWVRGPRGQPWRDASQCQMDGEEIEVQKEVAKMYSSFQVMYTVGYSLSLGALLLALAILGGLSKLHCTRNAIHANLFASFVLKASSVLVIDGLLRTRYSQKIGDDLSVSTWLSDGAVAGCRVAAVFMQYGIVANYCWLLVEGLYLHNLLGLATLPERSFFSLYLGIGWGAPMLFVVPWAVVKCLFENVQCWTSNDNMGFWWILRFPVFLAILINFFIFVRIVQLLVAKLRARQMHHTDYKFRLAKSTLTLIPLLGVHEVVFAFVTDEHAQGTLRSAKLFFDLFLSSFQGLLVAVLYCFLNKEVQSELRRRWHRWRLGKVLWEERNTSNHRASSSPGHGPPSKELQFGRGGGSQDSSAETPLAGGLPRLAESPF

human GLP-1R = human GLP-1R (Homo sapiens, UniProt P43220); assay: Peptide-receptor mediated cAMP accumulation (LANCE Ultra cAMP) in CHO-K1 cells transfected with human GLP-1R; format: cell-based
Sequence of human GLP-1R (P43220 24-463): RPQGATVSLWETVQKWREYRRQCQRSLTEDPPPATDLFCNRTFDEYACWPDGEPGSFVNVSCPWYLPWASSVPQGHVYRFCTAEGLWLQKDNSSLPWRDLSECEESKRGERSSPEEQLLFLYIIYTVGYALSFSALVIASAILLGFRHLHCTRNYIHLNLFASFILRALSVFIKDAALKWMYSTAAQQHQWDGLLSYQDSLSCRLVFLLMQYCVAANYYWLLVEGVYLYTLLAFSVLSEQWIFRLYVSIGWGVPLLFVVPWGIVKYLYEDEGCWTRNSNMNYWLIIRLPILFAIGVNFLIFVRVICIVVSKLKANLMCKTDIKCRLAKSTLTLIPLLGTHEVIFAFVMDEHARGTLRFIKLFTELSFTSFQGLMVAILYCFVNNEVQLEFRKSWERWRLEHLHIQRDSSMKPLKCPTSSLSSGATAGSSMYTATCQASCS

[1] = Solubility in water or saline at room temperature, visual inspection; format: physicochemical; settings: Solubility in water mg/ml
Excerpt: Samples were visually inspected for clarity of the sample, any appearance of turbidity or haziness.

[2] = Stability in water or saline at 37° C. and room temperature, 30 days, LC/MS and HPLC purity; format: physicochemical
Excerpt: Samples were withdrawn at a regular interval for 30 days and analyzed by LC/MS and HPLC for determination of purity and mass of the degradation product.

in vivo = settings: male, rat
Protocol: Peptides were formulated in sterile saline and administered as a 3-hour intravenous infusion to non-fasted male Wistar Han or Sprague-Dawley rats (n=3 per group) via jugular vein cannula at a final dose of 0.3 or 0.1 mg/kg. […] Plasma was prepared by centrifugation and stored at −80° C. until analysis.
Protein Precipitation: All 96-well plates were coated with a blocking agent to mitigate non-specific binding of peptides. Plasma samples (75 uL) were added to a 96-well plate containing 200 uL of 2:1 ethanol:acetonitrile containing 0.1% TFA and mixed well via aspiration. Plates were capped, vortex-mixed and centrifuged. Supernatants (215 uL) were transferred to a clean 96-well plate, evaporated to dryness under nitrogen flow and then reconstituted in 75 μL of 20% acetonitrile in water containing 0.10% formic acid.
Solid-Phase Extraction: Samples were diluted 3-fold with 5% NH4OH (aq) and loaded onto an Oasis MAX microElution plate (Waters Corp, Milford, MA) that had been pre-conditioned with 200 uL each of methanol and 5% NH4OH (aq). The plate was washed with 200 uL 5% NH4OH (aq), followed by 200 uL 20% acetonitrile in water. […] Samples were reconstituted in 80 uL 0.1% formic acid in water.
All calibration standards were prepared in control rat plasma containing K2EDTA and protease inhibitor cocktail. […] Samples were injected onto a 2.1×50 mm reverse phase C18 analytical column, typically a Waters ACQUITY UPLC™ HSS T3, 1.8 μm (Waters Corporation, Milford, MA) or similar. […] Typical flow rates were 600 L/min. The column temperature was held constant at 40 or 45° C. Peptides were quantified my monitoring one or more product ions produced from a multiply charged parent ion.

[3] = hGLP1 pEC50 (cAMP mean (n = 3): 11 point curve starting at 1 nM, Table 3)
[4] = hGLP1 pEC50 (cAMP) mean (n = 3): 11 point curve starting at 1 nM, Table 2B

SMILES | EC50 (human GCGR; Table 2A) | hGCGR pEC50 (cAMP mean (n = 3): 11 point curve starting at 1 nM) (human GCGR; Table 3) | EC50 (human GLP-1R; [3]) | EC50 (human GLP-1R; hGLP1 pEC50 (cAMP) mean (n = 9): 11 point curve starting at 500 uM, Table 2A) | solubility [1] | Stability 1 mg/ml in water at 37 degC [2] | clearance (in vivo) | CL (FIGURE 2B) | EC50 (human GLP-1R; [4]) | CL (FIGURE 2A) | EC50 (human GCGR; Table 2B)
CC(C)C[C@H](NC(=O)[C@H](Cc1ccc(O)cc1)NC(=O)[C@H](CCCCN)NC(=O)[C@H](CO)NC(=O)[C@H](Cc1ccc(O)cc1)NC(=O)[C@H](CC(=O)O)NC(=O)[C@H](CO)NC(=O)[C@@H](NC(=O)[C@H](Cc1ccccc1)NC(=O)[C@@H](NC(=O)CNC(=O)[C@H](Cc1c[nH]cn1)NC(=O)[C@H](CO)NC(=O)[C@@H](N)Cc1ccc(O)cc1)[C@@H](C)O)[C@@H](C)O)C(=O)N[C@@H](CC(=O)O)C(=O)N[C@@H](CO)C(=O)N[C@@H](C)C(=O)N[C@@H](CCCNC(=N)N)C(=O)N[C@@H](C)C(=O)N[C@@H](CCC(N)=O)C(=O)N[C@@H](CCC(=O)O)C(=O)N[C@@H](Cc1ccccc1)C(=O)N[C@H](C(=O)N[C@@H](CCCCN)C(=O)N[C@@H](Cc1c[nH]c2ccccc12)C(=O)N[C@@H](CC(C)C)C(=O)N[C@@H](CCC(=O)O)C(=O)N[C@@H](CC(=O)O)C(=O)N[C@@H](CCC(=O)O)C(=O)N1CCC[C@H]1C(=O)N[C@@H](CO)C(=O)N[C@@H](CO)C(=O)NCC(=O)N[C@@H](C)C(=O)N1CCC[C@H]1C(=O)N1CCC[C@H]1C(=O)N1CCC[C@H]1C(=O)N[C@@H](CO)C(N)=O)C(C)C [Compound A5] (H-YSHGTFTSDYSKYLDSARAQEFVKWLEDEPSSGAPPPS-NH2; N-terminus assumed) | 0.00158 nM | 11.8 | 1580 nM | 1580 nM | > 200 mg/mL | >94% | 11.7 mL/min/kg | 22.6 ± 0.6 mL/min/kg | – | – | –
CC(C)C[C@H](NC(=O)[C@H](Cc1ccc(O)cc1)NC(=O)[C@H](CCCCN)NC(=O)[C@H](CO)NC(=O)[C@H](Cc1ccc(O)cc1)NC(=O)[C@H](CC(=O)O)NC(=O)[C@H](CO)NC(=O)[C@@H](NC(=O)[C@H](Cc1ccccc1)NC(=O)[C@@H](NC(=O)CNC(=O)[C@H](Cc1c[nH]cn1)NC(=O)[C@H](CO)NC(=O)[C@@H](N)Cc1ccc(O)cc1)[C@@H](C)O)[C@@H](C)O)C(=O)N[C@@H](CC(=O)O)C(=O)N[C@@H](C)C(=O)N[C@@H](C)C(=O)N[C@@H](CCCNC(=N)N)C(=O)N[C@@H](C)C(=O)N[C@@H](CCC(N)=O)C(=O)N[C@@H](CCC(=O)O)C(=O)N[C@@H](Cc1ccccc1)C(=O)N[C@H](C(=O)N[C@@H](CCCCN)C(=O)N[C@@H](Cc1c[nH]c2ccccc12)C(=O)N[C@@H](CC(C)C)C(=O)N[C@@H](CCC(=O)O)C(=O)N[C@@H](CC(=O)O)C(=O)N[C@@H](CCC(=O)O)C(=O)N1CCC[C@H]1C(=O)N[C@@H](CO)C(=O)N[C@@H](CO)C(=O)NCC(=O)N[C@@H](C)C(=O)N1CCC[C@H]1C(=O)N1CCC[C@H]1C(=O)N1CCC[C@H]1C(=O)N[C@@H](CO)C(=O)O)C(C)C [Compound A97] (H-YSHGTFTSDYSKYLDAARAQEFVKWLEDEPSSGAPPPS-OH; N-terminus assumed) | – | – | > 1 nM | – | > 200 mg/mL | >59% | 18.9 mL/min/kg | – | > 1 nM | – | –
CC(C)C[C@H](NC(=O)[C@H](Cc1c[nH]c2ccccc12)NC(=O)[C@H](CCCCN)NC(=O)[C@@H](NC(=O)[C@H](Cc1ccccc1)NC(=O)[C@H](CCC(=O)O)NC(=O)[C@H](CCC(N)=O)NC(=O)[C@H](C)NC(=O)[C@H](CCCNC(=N)N)NC(=O)[C@H](CCCCN)NC(=O)[C@H](CO)NC(=O)[C@H](CCC(=O)O)NC(=O)[C@H](CC(C)C)NC(=O)[C@H](CC(C)C)NC(=O)[C@H](CCCNC(=N)N)NC(=O)[C@@H](NC(=O)[C@H](Cc1ccc(O)cc1)NC(=O)[C@H](CC(=O)O)NC(=O)[C@H](CO)NC(=O)[C@@H](NC(=O)[C@H](Cc1ccccc1)NC(=O)[C@@H](NC(=O)CNC(=O)[C@H](Cc1c[nH]cn1)NC(=O)[C@H](CO)NC(=O)[C@@H](N)Cc1ccc(O)cc1)[C@@H](C)O)[C@@H](C)O)[C@@H](C)O)C(C)C)C(=O)N[C@@H](CCC(=O)O)C(=O)N[C@@H](CC(=O)O)C(=O)N[C@@H](CCC(=O)O)C(=O)N1CCC[C@H]1C(=O)N[C@@H](CO)C(=O)N[C@@H](CO)C(=O)NCC(=O)N[C@@H](C)C(=O)N1CCC[C@H]1C(=O)N1CCC[C@H]1C(=O)N1CCC[C@H]1C(=O)N[C@@H](CO)C(=O)O [Compound A98] (H-YSHGTFTSDYTRLLESKRAQEFVKWLEDEPSSGAPPPS-OH; N-terminus assumed) | – | – | > 1 nM | – | > 200 mg/mL | >75% | – | – | > 1 nM | 51.5 ± 13.4 mL/min/kg | –
CC(C)C[C@H](NC(=O)[C@H](Cc1ccc(O)cc1)NC(=O)[C@H](CCCCN)NC(=O)[C@H](CO)NC(=O)[C@H](Cc1ccc(O)cc1)NC(=O)[C@H](CC(=O)O)NC(=O)[C@H](CO)NC(=O)[C@@H](NC(=O)[C@H](Cc1ccccc1)NC(=O)[C@@H](NC(=O)CNC(=O)[C@H](Cc1c[nH]cn1)NC(=O)[C@H](CO)NC(=O)[C@@H](N)Cc1ccc(O)cc1)[C@@H](C)O)[C@@H](C)O)C(=O)N[C@@H](CC(=O)O)C(=O)NC(C)(C)C(=O)N[C@@H](CCCCN)C(=O)N[C@@H](CCCNC(=N)N)C(=O)N[C@@H](C)C(=O)N[C@@H](CCC(N)=O)C(=O)N[C@@H](CCC(=O)O)C(=O)N[C@@H](Cc1ccccc1)C(=O)N[C@H](C(=O)NC(C)(C)C(=O)N[C@@H](Cc1c[nH]c2ccccc12)C(=O)N[C@@H](CC(C)C)C(=O)N[C@@H](CCC(=O)O)C(=O)N[C@@H](CC(=O)O)C(=O)N[C@@H](CCC(=O)O)C(=O)N1CCC[C@H]1C(=O)N[C@@H](CO)C(=O)N[C@@H](CO)C(=O)NCC(=O)N[C@@H](C)C(=O)N1CCC[C@H]1C(=O)N1CCC[C@H]1C(=O)N1CCC[C@H]1C(=O)N[C@@H](CO)C(=O)O)C(C)C [Compound A99] | – | – | > 1 nM | – | > 200 mg/mL | >64% | 23 mL/min/kg | – | > 1 nM | 22.3 ± 1.9 mL/min/kg | –
CC(C)C[C@H](NC(=O)[C@H](Cc1ccc(O)cc1)NC(=O)[C@H](CCCCN)NC(=O)[C@H](CO)NC(=O)[C@H](Cc1ccc(O)cc1)NC(=O)[C@H](CC(=O)O)NC(=O)[C@H](CO)NC(=O)[C@@H](NC(=O)[C@H](Cc1ccccc1)NC(=O)[C@@H](NC(=O)CNC(=O)[C@H](Cc1c[nH]cn1)NC(=O)[C@H](CO)NC(=O)[C@@H](N)Cc1ccc(O)cc1)[C@@H](C)O)[C@@H](C)O)C(=O)N[C@@H](CC(=O)O)C(=O)NC(C)(C)C(=O)N[C@@H](CCCCN)C(=O)N[C@@H](CCCNC(=N)N)C(=O)N[C@@H](C)C(=O)N[C@@H](CCC(N)=O)C(=O)N[C@@H](CCC(=O)O)C(=O)N[C@@H](Cc1ccccc1)C(=O)N[C@H](C(=O)NC(C)(C)C(=O)N[C@@H](Cc1c[nH]c2ccccc12)C(=O)N[C@@H](CC(C)C)C(=O)N[C@@H](CCC(=O)O)C(=O)N[C@@H](CC(=O)O)C(=O)N[C@@H](CCC(=O)O)C(=O)O)C(C)C [Compound A100] | – | – | > 1 nM | – | > 200 mg/mL | >69% | – | – | > 1 nM | 120 ± 39 mL/min/kg | –
CC(C)C[C@H](NC(=O)[C@H](Cc1c[nH]c2ccccc12)NC(=O)[C@H](CCCCN)NC(=O)[C@@H](NC(=O)[C@H](Cc1ccccc1)NC(=O)[C@H](CCC(=O)O)NC(=O)[C@H](CCC(N)=O)NC(=O)[C@H](C)NC(=O)[C@H](CCCNC(=N)N)NC(=O)[C@H](CCCCN)NC(=O)C(C)(C)NC(=O)[C@H](CC(=O)O)NC(=O)[C@H](CC(C)C)NC(=O)[C@H](Cc1ccc(O)cc1)NC(=O)[C@H](CCCCN)NC(=O)[C@H](CO)NC(=O)[C@H](Cc1c[nH]cn1)NC(=O)[C@H](CC(=O)O)NC(=O)[C@H](CO)NC(=O)[C@@H](NC(=O)[C@H](Cc1ccccc1)NC(=O)[C@@H](NC(=O)CNC(=O)[C@H](Cc1c[nH]cn1)NC(=O)CNC(=O)[C@@H](N)Cc1ccc(O)cc1)[C@@H](C)O)[C@@H](C)O)C(C)C)C(=O)N[C@@H](CCC(=O)O)C(=O)N[C@@H](CC(=O)O)C(=O)N[C@@H](CCC(=O)O)C(=O)O [Compound A101] (H-YGHGTFTSDHSKYLD[Aib]KRAQEFVKWLEDE-OH; N-terminus assumed) | – | – | > 1 nM | – | > 200 mg/mL | >50% | – | – | > 1 nM | 88.3 ± 9.0 mL/min/kg | 0.00501 nM
CC(C)C[C@H](NC(=O)[C@H](Cc1c[nH]c2ccccc12)NC(=O)[C@H](CCCCN)NC(=O)[C@@H](NC(=O)[C@H](Cc1ccccc1)NC(=O)[C@H](CCC(=O)O)NC(=O)[C@H](CCC(N)=O)NC(=O)[C@H](C)NC(=O)[C@H](CCCNC(=N)N)NC(=O)[C@H](CCCCN)NC(=O)C(C)(C)NC(=O)[C@H](CC(=O)O)NC(=O)[C@H](CC(C)C)NC(=O)[C@H](Cc1c[nH]c2ccccc12)NC(=O)[C@H](CCCCN)NC(=O)[C@H](CO)NC(=O)[C@H](Cc1ccc(O)cc1)NC(=O)[C@H](CC(=O)O)NC(=O)[C@H](CO)NC(=O)[C@@H](NC(=O)[C@H](Cc1ccccc1)NC(=O)[C@@H](NC(=O)CNC(=O)[C@H](Cc1c[nH]cn1)NC(=O)[C@H](CO)NC(=O)[C@@H](N)Cc1ccc(O)cc1)[C@@H](C)O)[C@@H](C)O)C(C)C)C(=O)N[C@@H](CCC(=O)O)C(=O)N[C@@H](CC(=O)O)C(=O)N[C@@H](CCC(=O)O)C(=O)O [Compound A102] (H-YSHGTFTSDYSKWLD[Aib]KRAQEFVKWLEDE-OH; N-terminus assumed) | – | – | > 1 nM | – | > 200 mg/mL | >51% | – | – | > 1 nM | 97.2 ± 6.3 mL/min/kg | –
